Test results as given in ChEMBL document CHEMBL1201862, “PubChem BioAssay data set” (2004).
Calls of active or inactive are those of the source.

Legend:
Cytochrome P450 3A4 = Cytochrome P450 3A4 (Homo sapiens, UniProt P08684);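 note: CYP3A4 tested as one member of a cytochrome P450 panel screen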
Cytochrome P450 2C19 = Cytochrome P450 2C19 (Homo sapiens, UniProt P33261); experiment: Cytochrome panel assay with activity outcomes. Panel member name: p450-cyp2c19 Compounds with AC50 equal or less than 10 uM are considered active; type: functional
Sequence of Cytochrome P450 2C19 (P33261 whole entry): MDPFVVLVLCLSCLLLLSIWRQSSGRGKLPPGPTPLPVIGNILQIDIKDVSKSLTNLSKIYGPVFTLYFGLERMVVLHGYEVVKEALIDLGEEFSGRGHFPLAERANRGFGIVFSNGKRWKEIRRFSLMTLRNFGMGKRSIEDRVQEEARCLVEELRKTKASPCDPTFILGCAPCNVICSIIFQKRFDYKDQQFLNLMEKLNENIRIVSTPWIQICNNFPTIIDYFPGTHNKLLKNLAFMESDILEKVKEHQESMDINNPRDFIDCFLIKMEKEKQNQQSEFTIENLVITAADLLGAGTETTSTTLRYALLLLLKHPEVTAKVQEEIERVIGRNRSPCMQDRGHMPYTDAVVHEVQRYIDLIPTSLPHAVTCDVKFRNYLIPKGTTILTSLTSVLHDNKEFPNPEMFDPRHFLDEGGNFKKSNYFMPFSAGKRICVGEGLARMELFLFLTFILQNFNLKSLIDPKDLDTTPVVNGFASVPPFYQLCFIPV

Cytochrome P450 2D6 = Cytochrome P450 2D6 (Homo sapiens, UniProt P10635);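 note: CYP2D6 member of a cytochrome P450 panel assay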
Sequence of Cytochrome P450 2D6 (P10635 whole entry): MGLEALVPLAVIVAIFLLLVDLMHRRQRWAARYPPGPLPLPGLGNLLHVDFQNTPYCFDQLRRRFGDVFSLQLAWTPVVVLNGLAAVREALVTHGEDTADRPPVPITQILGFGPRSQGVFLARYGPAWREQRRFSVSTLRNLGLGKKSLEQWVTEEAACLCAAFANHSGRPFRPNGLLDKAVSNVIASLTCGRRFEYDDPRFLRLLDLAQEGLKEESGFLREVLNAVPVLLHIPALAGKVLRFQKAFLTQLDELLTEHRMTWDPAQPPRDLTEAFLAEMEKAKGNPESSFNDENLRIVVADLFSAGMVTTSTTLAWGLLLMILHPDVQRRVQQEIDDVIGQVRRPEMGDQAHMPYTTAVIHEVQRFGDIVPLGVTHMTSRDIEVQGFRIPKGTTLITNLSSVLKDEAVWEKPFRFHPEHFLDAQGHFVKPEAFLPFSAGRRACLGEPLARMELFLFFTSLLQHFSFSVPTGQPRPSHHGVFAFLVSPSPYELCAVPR

[1] = target: Peroxisome proliferator-activated receptor gamma/Nuclear receptor coactivator 3 (Homo sapiens, UniProt P37231); experiment: TR-FRET dose response biochemical High Throughput Screening assay for agonists of the steroid receptor coactivator 3 (SRC-3) recruitment by the peroxisome proliferator-activated receptor gamma (PPAR gamma): non-selective agonists. [Related pubchem assays: 1301 (Confirmation screen.), 1048 (Primary screen.)]; type: functional
Sequence of Peroxisome proliferator-activated receptor gamma/Nuclear receptor coactivator 3 (P37231 whole entry): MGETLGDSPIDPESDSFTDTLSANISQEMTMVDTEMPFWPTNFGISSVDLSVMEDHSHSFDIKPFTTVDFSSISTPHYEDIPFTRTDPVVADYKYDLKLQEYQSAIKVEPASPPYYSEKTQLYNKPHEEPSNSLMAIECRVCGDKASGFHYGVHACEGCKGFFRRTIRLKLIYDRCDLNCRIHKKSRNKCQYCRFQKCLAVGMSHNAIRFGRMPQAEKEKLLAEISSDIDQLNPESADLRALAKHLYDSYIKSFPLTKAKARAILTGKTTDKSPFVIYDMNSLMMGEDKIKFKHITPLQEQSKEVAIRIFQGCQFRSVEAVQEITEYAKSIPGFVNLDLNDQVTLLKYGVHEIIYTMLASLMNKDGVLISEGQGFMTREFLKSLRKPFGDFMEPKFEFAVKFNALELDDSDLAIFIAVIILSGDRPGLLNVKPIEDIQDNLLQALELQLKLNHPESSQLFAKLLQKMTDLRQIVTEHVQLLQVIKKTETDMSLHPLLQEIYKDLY
Sequence of Peroxisome proliferator-activated receptor gamma/Nuclear receptor coactivator 3 (Q9Y6Q9 whole entry, further chain): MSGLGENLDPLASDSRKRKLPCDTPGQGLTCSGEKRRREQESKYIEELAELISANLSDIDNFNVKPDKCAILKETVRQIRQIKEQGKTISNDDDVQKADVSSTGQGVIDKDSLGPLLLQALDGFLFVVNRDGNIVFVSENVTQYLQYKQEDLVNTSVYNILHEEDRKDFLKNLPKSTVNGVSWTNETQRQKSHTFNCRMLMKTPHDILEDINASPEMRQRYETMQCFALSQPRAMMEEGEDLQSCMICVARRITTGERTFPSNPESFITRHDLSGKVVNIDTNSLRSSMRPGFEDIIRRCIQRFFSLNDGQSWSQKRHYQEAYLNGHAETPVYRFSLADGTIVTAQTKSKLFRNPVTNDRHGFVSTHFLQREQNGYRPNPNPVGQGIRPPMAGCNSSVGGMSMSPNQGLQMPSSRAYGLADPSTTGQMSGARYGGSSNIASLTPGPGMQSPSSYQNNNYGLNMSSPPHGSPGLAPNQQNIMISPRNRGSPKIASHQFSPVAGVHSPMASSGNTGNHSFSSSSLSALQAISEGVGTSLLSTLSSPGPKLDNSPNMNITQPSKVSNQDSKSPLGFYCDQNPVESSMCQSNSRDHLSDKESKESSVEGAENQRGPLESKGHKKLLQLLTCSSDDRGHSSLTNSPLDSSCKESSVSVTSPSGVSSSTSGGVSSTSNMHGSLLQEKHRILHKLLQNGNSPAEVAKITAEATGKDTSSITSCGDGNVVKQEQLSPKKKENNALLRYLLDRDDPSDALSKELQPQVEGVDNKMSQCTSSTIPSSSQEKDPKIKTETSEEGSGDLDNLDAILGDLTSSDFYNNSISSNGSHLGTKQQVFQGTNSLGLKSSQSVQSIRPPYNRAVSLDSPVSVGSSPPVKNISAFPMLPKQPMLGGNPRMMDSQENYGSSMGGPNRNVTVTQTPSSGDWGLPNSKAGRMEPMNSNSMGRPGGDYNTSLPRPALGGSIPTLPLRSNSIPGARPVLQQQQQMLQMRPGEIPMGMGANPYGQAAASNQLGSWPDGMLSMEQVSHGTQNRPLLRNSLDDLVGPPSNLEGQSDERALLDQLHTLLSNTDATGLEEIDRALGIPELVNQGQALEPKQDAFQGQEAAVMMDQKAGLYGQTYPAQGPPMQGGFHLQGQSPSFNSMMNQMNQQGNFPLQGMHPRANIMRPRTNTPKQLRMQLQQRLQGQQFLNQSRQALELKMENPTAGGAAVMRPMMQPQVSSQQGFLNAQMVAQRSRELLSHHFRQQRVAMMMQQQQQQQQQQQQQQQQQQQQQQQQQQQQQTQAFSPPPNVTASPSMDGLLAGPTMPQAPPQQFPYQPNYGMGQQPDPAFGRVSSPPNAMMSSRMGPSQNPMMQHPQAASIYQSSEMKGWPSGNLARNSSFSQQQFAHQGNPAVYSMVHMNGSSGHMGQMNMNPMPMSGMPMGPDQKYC

[2] = target: Peroxisome proliferator-activated receptor gamma/Nuclear receptor coactivator 2 (Homo sapiens, UniProt P37231); experiment: TR-FRET dose response biochemical High Throughput Screening assay for agonists of the steroid receptor coactivator 2 (SRC-2) recruitment by the peroxisome proliferator-activated receptor gamma (PPAR gamma): non-selective agonists. [Related pubchem assays: 1297, 1032 ]; type: functional
[3] = target: Peroxisome proliferator-activated receptor gamma/Nuclear receptor coactivator 1 (Homo sapiens, UniProt P37231); experiment: TR-FRET dose response biochemical High Throughput Screening assay for agonists of the steroid receptor coactivator 1 (SRC-1) recruitment by the peroxisome proliferator-activated receptor gamma (PPAR gamma): non-selective agonists. [Related pubchem assays (depositor defined):AID1300, AID1808, AID504735, AID631]; type: protein assay
[4] = target: Voltage-dependent T-type calcium channel subunit alpha-1H (Homo sapiens, UniProt O95180); type: functional;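 note: channel activity triggered by adding a high calcium stimulation buffer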
CAAX prenyl protease 2 = target: T1, CAAX prenyl protease 2 (Saccharomyces cerevisiae S288c, UniProt Q03530); type: biochemical
T1 sequence (Q03530 whole entry): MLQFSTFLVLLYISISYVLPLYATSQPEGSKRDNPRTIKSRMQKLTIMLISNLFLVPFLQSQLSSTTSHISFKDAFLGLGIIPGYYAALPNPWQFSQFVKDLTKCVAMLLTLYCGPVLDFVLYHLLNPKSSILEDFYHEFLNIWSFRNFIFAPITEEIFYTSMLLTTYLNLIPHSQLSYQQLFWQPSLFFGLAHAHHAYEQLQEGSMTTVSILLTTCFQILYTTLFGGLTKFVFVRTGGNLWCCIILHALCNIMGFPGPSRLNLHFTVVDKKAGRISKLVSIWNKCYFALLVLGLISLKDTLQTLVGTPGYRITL

Exodeoxyribonuclease V = target: T2, Exodeoxyribonuclease V (Escherichia coli (strain K12), UniProt P04993+P07648+P08394); experiment: RecBCD inhibition via phage-restricted bacterial growth – absorbance, V66 E. coli, mutant T4 phage, counter-screen for AddAB inhibitor project, dose response (AID 492957); type: functional, cell-based, Escherichia coli str. K-12 substr. MG1655
T2 sequence (P04993 whole entry): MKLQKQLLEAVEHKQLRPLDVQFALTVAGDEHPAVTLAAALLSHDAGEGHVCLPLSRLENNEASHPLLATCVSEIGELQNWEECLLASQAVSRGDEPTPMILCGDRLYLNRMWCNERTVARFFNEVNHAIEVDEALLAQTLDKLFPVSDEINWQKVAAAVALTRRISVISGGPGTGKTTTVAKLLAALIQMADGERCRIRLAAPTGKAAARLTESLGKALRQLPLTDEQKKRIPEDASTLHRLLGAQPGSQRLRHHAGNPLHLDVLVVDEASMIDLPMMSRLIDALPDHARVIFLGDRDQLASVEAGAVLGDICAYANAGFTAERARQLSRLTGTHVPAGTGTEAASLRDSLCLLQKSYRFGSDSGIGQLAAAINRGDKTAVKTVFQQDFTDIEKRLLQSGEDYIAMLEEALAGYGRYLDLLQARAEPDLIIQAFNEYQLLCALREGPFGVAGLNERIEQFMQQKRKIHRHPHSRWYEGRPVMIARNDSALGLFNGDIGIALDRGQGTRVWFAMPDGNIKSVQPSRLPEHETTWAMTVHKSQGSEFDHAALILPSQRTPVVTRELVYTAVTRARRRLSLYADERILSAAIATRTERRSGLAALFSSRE
T2 sequence (P07648 whole entry): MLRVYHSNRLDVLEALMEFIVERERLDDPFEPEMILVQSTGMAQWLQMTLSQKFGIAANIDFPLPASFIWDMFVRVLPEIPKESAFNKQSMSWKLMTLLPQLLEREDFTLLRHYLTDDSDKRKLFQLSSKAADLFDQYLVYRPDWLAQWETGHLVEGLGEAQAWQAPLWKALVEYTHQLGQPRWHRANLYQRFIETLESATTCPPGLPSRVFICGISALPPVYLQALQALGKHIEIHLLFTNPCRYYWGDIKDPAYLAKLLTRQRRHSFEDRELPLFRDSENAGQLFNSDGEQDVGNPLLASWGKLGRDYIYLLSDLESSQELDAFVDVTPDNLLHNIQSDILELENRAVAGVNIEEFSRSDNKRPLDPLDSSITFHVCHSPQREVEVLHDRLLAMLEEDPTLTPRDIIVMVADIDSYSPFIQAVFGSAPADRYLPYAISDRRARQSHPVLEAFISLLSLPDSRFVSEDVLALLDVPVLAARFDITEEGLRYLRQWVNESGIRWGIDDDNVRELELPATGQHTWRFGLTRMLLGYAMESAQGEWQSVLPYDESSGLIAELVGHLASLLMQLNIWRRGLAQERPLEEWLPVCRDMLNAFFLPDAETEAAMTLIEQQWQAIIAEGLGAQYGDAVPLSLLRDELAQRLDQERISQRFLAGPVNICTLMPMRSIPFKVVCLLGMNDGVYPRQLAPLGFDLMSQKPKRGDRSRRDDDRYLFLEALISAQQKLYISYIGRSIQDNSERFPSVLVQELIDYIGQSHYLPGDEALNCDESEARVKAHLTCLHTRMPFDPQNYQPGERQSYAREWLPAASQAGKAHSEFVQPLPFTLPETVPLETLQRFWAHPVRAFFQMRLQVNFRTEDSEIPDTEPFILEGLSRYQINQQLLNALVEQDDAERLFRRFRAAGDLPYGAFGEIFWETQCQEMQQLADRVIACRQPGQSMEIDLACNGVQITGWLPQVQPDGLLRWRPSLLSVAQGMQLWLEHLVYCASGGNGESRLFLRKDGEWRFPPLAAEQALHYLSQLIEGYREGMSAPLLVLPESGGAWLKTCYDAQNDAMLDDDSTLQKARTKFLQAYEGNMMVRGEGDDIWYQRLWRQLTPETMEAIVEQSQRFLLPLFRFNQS
T2 sequence (P08394 whole entry): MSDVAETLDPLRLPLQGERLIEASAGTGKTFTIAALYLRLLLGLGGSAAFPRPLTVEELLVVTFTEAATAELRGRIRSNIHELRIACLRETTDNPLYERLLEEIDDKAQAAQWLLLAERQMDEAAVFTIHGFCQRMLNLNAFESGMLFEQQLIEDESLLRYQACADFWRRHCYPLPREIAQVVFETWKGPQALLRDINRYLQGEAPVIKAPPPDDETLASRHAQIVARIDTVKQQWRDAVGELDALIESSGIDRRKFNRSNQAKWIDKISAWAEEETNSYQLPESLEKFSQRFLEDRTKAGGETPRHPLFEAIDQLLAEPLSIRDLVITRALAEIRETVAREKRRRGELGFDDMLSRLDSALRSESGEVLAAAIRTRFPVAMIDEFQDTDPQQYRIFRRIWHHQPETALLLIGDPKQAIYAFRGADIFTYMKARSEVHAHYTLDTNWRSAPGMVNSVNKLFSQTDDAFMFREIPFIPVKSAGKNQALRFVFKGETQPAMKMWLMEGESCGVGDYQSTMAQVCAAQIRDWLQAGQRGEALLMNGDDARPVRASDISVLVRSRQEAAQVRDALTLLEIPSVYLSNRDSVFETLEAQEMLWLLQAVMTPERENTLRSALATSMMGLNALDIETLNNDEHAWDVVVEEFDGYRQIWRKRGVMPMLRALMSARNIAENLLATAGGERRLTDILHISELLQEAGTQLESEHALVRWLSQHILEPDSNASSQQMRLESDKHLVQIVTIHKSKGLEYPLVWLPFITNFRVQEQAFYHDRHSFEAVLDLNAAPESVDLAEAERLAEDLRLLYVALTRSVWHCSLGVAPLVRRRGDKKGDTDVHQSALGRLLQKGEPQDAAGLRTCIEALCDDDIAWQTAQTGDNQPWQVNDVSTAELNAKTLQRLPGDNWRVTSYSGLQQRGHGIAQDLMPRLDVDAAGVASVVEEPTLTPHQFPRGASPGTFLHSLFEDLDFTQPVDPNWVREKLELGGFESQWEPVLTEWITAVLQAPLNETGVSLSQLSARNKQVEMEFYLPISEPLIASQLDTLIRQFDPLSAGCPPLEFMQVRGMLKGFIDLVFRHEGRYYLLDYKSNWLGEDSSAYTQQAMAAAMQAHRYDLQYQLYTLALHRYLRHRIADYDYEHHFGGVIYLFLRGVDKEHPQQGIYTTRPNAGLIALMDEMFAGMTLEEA

[5] = Counterscreen for AddAB inhibitors: absorbance-based bacterial cell-based high throughput dose response assay for inhibitors of bacterial viability. [Related pubchem assays (depositor defined):AID435030, AID449728, AID449731, AID488942, AID488955, AID488956]; type: functional
Cytochrome P450 1A2 = target: T3, Cytochrome P450 1A2 (Homo sapiens, UniProt P05177);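 note: PubChem cytochrome P450 panel assay, CYP1A2 panel member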
T3 sequence (P05177 whole entry): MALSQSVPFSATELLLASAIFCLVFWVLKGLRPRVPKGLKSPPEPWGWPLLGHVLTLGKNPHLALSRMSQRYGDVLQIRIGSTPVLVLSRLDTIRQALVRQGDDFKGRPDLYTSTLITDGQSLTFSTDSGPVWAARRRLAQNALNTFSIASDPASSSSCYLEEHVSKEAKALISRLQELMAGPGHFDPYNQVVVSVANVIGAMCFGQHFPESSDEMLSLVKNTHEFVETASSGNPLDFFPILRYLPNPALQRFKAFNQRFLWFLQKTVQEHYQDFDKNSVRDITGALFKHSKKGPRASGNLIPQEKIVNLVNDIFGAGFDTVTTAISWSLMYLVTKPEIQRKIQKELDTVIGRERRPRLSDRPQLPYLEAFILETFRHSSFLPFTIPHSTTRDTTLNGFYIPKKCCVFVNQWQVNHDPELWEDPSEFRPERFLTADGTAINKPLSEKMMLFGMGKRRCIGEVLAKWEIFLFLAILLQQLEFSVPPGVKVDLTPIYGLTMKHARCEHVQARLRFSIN

[6] = target: DNA dC->dU-editing enzyme APOBEC-3A (Homo sapiens, UniProt P31941); experiment: Dose Response confirmation of small molecule APOBEC3A DNA Deaminase Inhibitors via a fluorescence-based single-stranded DNA deaminase assay. [Related pubchem assays (depositor defined):AID493011, AID493024]; type: functional
Sequence of DNA dC->dU-editing enzyme APOBEC-3A (P31941 whole entry): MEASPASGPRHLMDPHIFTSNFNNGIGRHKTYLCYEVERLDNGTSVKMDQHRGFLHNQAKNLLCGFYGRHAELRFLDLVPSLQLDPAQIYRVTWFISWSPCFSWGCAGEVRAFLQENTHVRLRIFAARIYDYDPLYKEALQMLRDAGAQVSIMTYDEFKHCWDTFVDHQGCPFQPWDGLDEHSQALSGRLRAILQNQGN

[7] = target: DNA dC->dU-editing enzyme APOBEC-3G (Homo sapiens, UniProt Q9HC16); type: functional;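 note: Dose-response counterscreen measuring inhibition of APOBEC3G DNA deaminase activity, run while confirming APOBEC3A inhibitors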
Sequence of DNA dC->dU-editing enzyme APOBEC-3G (Q9HC16 whole entry): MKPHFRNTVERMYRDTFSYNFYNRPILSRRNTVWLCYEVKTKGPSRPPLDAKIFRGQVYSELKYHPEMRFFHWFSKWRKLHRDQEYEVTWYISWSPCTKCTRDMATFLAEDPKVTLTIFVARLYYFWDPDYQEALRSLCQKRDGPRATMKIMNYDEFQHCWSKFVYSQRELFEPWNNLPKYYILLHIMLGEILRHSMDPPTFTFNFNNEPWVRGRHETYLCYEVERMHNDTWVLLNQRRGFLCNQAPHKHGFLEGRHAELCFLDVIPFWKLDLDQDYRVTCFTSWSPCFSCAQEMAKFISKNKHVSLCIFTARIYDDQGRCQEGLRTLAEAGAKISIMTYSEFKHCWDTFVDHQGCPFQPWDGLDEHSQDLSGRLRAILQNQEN

[8] = loss of viability in HepG2 cells – cell-based, CellTiter-Glo, cherry-picked, cytotoxicity control for Shn3 inhibitor project, dose response (AID 624134); type: functional
[9] = Trypanosoma cruzi growth suppression in host cells – NIH3T3 host cells, beta-gal luminescence, confirmation (AID 2044); type: functional, cell-based;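 note: intracellular parasites grown in NIH/3T3 mouse fibroblasts as host cells; luminescent beta-galactosidase reporter signal from transgenic T. cruzi replicating inside host cells; inhibitors lower the luminescence signal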
[10] = NIH3T3 cell viability loss – ATP luminescence, mouse fibroblasts, counter-screen, dose response (AID 2010); type: functional, cell-based;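 note: cells exposed to compound for about 90 hours before reading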
[11] = reduction of Shn3 3'UTR-driven luciferase in osteoblasts – cell-based, Clone20 osteoblasts, firefly luciferase, cherry-picked, dose response (AID 624132); type: functional;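 note: firefly luciferase luminescence from reporter carrying the Shn3 3'UTR in osteoblasts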
HeLa = experiment: ATP-based viability loss in HeLa cells – cell-based, CellTiter-Glo luminescence, cherry-pick samples, cytotoxicity control for MITF activator project, dose response (AID 540259); type: functional; details: Homo sapiens

Sequence of Cytochrome P450 3A4 (P08684 whole entry): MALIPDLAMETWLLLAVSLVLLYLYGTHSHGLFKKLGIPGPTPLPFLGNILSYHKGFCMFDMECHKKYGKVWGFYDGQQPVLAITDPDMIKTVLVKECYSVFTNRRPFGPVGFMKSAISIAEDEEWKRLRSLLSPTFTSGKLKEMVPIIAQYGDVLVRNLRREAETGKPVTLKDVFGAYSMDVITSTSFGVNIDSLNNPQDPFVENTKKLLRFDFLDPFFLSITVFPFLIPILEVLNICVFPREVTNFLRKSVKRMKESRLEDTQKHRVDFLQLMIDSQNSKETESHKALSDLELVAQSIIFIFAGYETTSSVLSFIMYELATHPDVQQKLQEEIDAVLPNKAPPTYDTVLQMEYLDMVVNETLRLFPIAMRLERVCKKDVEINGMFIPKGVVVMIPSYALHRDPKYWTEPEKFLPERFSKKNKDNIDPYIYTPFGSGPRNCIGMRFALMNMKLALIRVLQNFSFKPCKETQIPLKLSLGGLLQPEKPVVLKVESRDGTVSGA

CC(C)NC(=O)N1CCCC2(CCN(C(=O)c3cccc(F)c3)CC2)C1
AC50 (Cytochrome P450 3A4): 25.1 µM (inconclusive)
AC50 (Cytochrome P450 2C19): inconclusive
AC50 (Cytochrome P450 2D6): inconclusive

CCn1c(=O)cc(SCC(=O)NCC2CCCO2)c2ccccc21 (stereo unspecified)
EC50 [1]: > 79.4 µM (not active)
EC50 [2]: > 79.4 µM (not active)
EC50 [3]: > 79.4 µM (inactive)

Cc1ccc(-c2nnn(CC(=O)N(c3ccccc3)C(C(=O)NCC3CCCO3)c3ccc(Cl)cc3)n2)cc1 (stereo unspecified)
AC50 (Cytochrome P450 3A4): 39.8 µM (inconclusive)
AC50 (Cytochrome P450 2C19; read-out: AC50): 1.12 µM (inconclusive)
EC50 [4]: 11.1 µM (active)
AC50 (Cytochrome P450 2D6): inconclusive

O=c1c(-c2ccccc2)c(O)c2ccccc2n1-c1ccccc1
AC50 (CAAX prenyl protease 2): 5.31 µM (active)

CCCS(=O)(=O)N1CCC(C(=O)NCc2ccccc2Cl)CC1
IC50 (Exodeoxyribonuclease V): > 119 µM (inactive)
IC50 [5]: > 119 µM (inactive)

CCOC(=O)NCN1C(=O)C2C3C=CC(C3)C2C1=O (stereo unspecified)
AC50 (Cytochrome P450 3A4): 6.31 µM (inconclusive)
AC50 (Cytochrome P450 1A2): 14.1 µM (inconclusive)
AC50 (Cytochrome P450 2D6): inconclusive

CCCC[n+]1c(C)sc2cc(OC)ccc21
IC50 [6]: 36 µM (active)
IC50 [7]: > 100 µM (inactive)

Cc1ccc(CNC(=O)c2ccc3c(O)c(O)c(-c4ccc(C)cc4)nc3c2)cc1
AC50 [8]: 3.49 µM (active)
EC50 [9]: 1.14 µM (active)
IC50 (Exodeoxyribonuclease V): > 119 µM (inactive)
IC50 [5]: > 119 µM (inactive)
EC50 [10]: 7.02 µM (active)
AC50 [11]: 2.82 µM (active)

COc1ccccc1C1=NN(C(S)=Nc2ccccc2)C(c2ccco2)C1 (stereo unspecified)
EC50 [1]: > 79.4 µM (not active)
EC50 [2]: > 79.4 µM (not active)
EC50 [3]: 19.7 µM (inactive)

O=C1CN(/N=C\c2ccc(-c3ccc([N+](=O)[O-])cc3)o2)C(O)=N1
AC50 (Cytochrome P450 2D6): inactive

C[N+](C)(C)CCCCCC(=O)C=NO
IC50 [6]: 5.54 µM (active)
IC50 [7]: 12.6 µM (active)

Cc1ccc(/C=N/c2sc3c(c2C#N)CCC3)s1
AC50 (HeLa): 82 µM (active)
